We go through one molecule from patent US20220133894A1, “BISPHOSPHONATE-LINKED COMPOUNDS” (OREGON HEALTH & SCIENCE UNIVERSITY, priority 2019, published 2022).

In one data set the test system is AR. Briefly: Subcellular localization of androgen receptor, Western blot of nuclear and cytoplasmic fractions. Format: cell-based, human. Particulars: LNCaP and VCaP cells, 10 μM KBU2046. From the text: Several considerations warranted a deeper examination of the effect of KBU2046 on AR function. […] Additionally, AR is a client protein of HSP90, AR function requires HSP90-mediated chaperone action, and direct inhibitors of HSP90 decrease client protein expression and inhibit AR function (24-26 Fang et al., J Biol Chem 271, 28697-28702 (1996); Saporita et al., Prostate 67, 509-520 (2007); and Ni et al., Mol Cell Biol 30, 1243-1253 (2010)). […] It is a selective HSP90 activity modulator (SHAM), and selectively modulates client proteins that regulate cell motility. However, the effect of KBU2046 on AR expression and function had not been examined. […]
LNCaP or VCaP cells cultured in hormone free media were treated with R1881 (R), KBU2046 (46) and/or enzalutamide (E). […] PSA expression was measured by qRT/PCR, normalized to GAPDH and expressed as a percent of control cells (N=3 replicates); * denotes P<0.05 for groups separated by bar. […] Data are the number of viable cells, expressed as % of control (N=3 replicates); * P<0.05 compared to control. […] Data are tumor size, expressed as luminescence intensity. All data are expressed as mean±SEM.
LNCaP and VCaP cells were pre-incubated in the charcoal-striped medium containing 10 μM KBU2046 or vehicle control for 72 hours. […] Protein was quantified by BCA assay (Thermo-Fisher Scientific, Waltham, Mass.), per manufacturer's instructions. […]
(A western blot detects proteins with antibodies after separation by electrophoresis.)

In another data set the test system is RAW 267.4 cells. Briefly: ApoTox-Glo Triplex assay in RANKL treated osteoclast cells. Format: cell-based, mouse. Particulars: 72 hours after treatment. As to the method:
FIG. 5 represents the improved efficacy seen with KBU2046 combined with ZA. In FIG. 5A bone degradation was tested using osteo assays performed as in FIG. 4D. Cells were treated with KBU2046 (46), ZA at 2, 10 or 20 μM, with the indicated combinations, or vehicle (control; CO). Data are the mean±SEM (N=3 replicates); * denotes P<0.05 compared to control, or between conditions denoted by bars. FIG. 5B provides representative photomicrographs of osteo assay wells. Black color denotes presence of bone matrix; RL: RANKL. (FIGS. 5C-5E) Cell viability, cytotoxicity and apoptosis. RAW 267.4 cells were treated with RANKL, at day 4 they were treated with KBU2046, ZA at 1 or 10 μM (ZA1 or ZA10), the indicated combination, or vehicle (CO) and Triplex assay performed 24, 48 or 72 hours later, per Methods. Data are the mean±SEM (N=4 replicates); ¥, #, * denotes P<0.05 compared to control. (FIGS. 5F-5H) In vivo efficacy. Four cohorts of mice, N=15/cohort, were given intracardiac injections of PC3-luc cells, yielding the following successful injections: N=12 control, N=12 ZA, N=13 KBU2046 and N=13 ZA+KBU2046. Treatment was oral 150 mg KBU2046/kg daily (starting 3 days before IC injection), intraperitoneal ZA 100 μg/kg weekly (starting 1 week before IC injection), with oral and intraperitoneal vehicle controls given as indicated. […] (FIGS. 5C and 5D) Quantification of bone lesions. The macroscopic lesions in the jaw were quantified by direct measurement from CT images, and expressed as the mean±SEM percent of control. Bone density of femurs was measured from CT images, and expressed as the mean±SEM percent of control. * denotes P<0.05 compared to control, and for groups indicated by bars.
We next examined the effect of ZA and KBU2046 on osteoclast cell viability, apoptosis and cytotoxicity. RAW 267.4 cells were treated with RANKL for the duration of the experiment, at day 4 they were then treated with ZA, KBU2046, the combination, or vehicle (for controls), and effect on cell viability, apoptosis and cytotoxicity measured by Triplex assay at 24, 48 and 72 hours after treatment (FIGS. 5C-5E). […]

Structures are written as SMILES.

Regarding `O=C1c2ccccc2OCC1c1ccc(F)cc1` (stereo not shown) [KBU2046, 3-(4-fluorophenyl)chroman-4-one], in the data set with AR, the “AR expression or nuclear localization in response to R1881, and its inhibition by enzalutamide” value is given as “did not affect”. In the data set on RAW 267.4 cells (compared to control), the cell viability entry is listed as “significant increases” and the cytotoxicity result is on record as “decreases”. Further, the apoptosis result in the data set on RAW 267.4 cells (compared to controls) is given as “significant increase”.
